EP0211584A1, “Antihypertensive agents” (AMERICAN HOME PRODUCTS CORPORATION, priority 1985, dated 1987)
Read-outs that look alike come from different tables or passages of the source.

How the values were obtained:
[1] = tested on: spontaneously hypertensive rats; assay: Hypotensive effect: systolic blood pressure of spontaneously hypertensive rats; type: in vivo; conditions: mmHg per method
Protocol: The hypotensive in vivo effect of the compounds of this invention was determined by measuring changes in the systolic blood pressure of spontaneously hypertensive rats with a Decker Caudal Plethysmograph. The compound being tested was administered to a group of 4 rats and their systolic pressure was determined prior to and at 1.5 and 4 hours after compound administration. Initial testing was done by oral administration of the compound. Results (mmHg) are expressed as decreases in systolic blood pressure.
(§1) The following examples illustrate the preparation of a representative number of compounds of this invention. After each example, the Ca+2 antagonist activity of the compound is presented in terms of percent relaxation of aortic tissue (P.R.) at 10-^5M concentration. […] Inhibition of super- precipitation (Antag. of Actin-Myosin interaction) is expressed as percent inhibition (mean ± standard error of the mean for at least 3 separate experiments) at a compound concentration. In the same manner, inhibition of myosin light chain phosphorylation (Antag. of MLCP) is expressed as a percent inhibition at a compound concentration. Similarly, the antihypertensive activity is reported in terms of millimetres mercury (mmHg) systolic blood pressure (B.P.) reduction at the stated time post 50 mg/kg oral dosing or other dosing as indicated.

[2] = tested on: arterial actin-myosin interactions; assay: Inhibition of superprecipitation (antagonism of actin-myosin interaction), Silver et al.; type: biochemical; conditions: six minute time-point
Protocol: . The data reported herein was obtained at a six minute time-point rather than the 1.5, 5 and 12 minute time points indicated in the superprecipita- tion assay of the Silver et al paper.
as §1

[3] = tested on: rabbit aortic smooth muscle; assay: Ca+2 antagonism: relaxation of KCl-depolarized rabbit aortic smooth muscle strips; conditions: 20 min; for inhibition at 10 µM: Oryctolagus cuniculus, read-out: P.R. (percent relaxation of aortic tissue)
Protocol: The composition of PSS was as follows (mM): NaCl 112,KCI 5, NaHCO3 25 KH2PO4 1, MgSO4 1.2, CaCl2 2.5, dextrose 10. The lower end of each tissue strip was attached to a fixed post and the upper end to a Statham UC-4 transducer. Changes in force development were recorded on a Beckman Dynograph Polygraphic Recorder.
Following equilibration, the muscles were contracted in a depolarizing solution of PSS in which 100mM KCI was substituted for an equimolar concentration of NaCI. Following attainment of steady- state isometric force (20 min.), the test compound was added to afford a final concentration of 1 x 10^-5M. The inhibitory effect, expressed as percent relaxation, was determined from the mean of two experiments twenty minutes after the addition of the compound being tested.
as §1

[4] = target: Ca^+2-calmodulin dependent myosin light chain phosphorylation (Bos taurus, UniProt Q28824); assay: Inhibition of myosin light chain phosphorylation (MLCP), Silver et al.; type: biochemical; conditions: read-out: Antag. of MLCP (percent inhibition of myosin light chain phosphorylation)
Protocol: The data reported herein was obtained at a six minute time-point rather than the 1.5, 5 and 12 minute time points indicated in the superprecipita- tion assay of the Silver et al paper.
as §1

[5] = tested on: isolated paced intact rabbit atria; assay: Cardiac depressant (negative inotropic) effect in isolated paced rabbit atria; conditions: Oryctolagus cuniculus; for IC25: read-out: IC25 (concentration which produces 25% inhibition of isometric force)
Protocol: The potential for detrimental cardiac depressant (negative inotropic) effects of the compounds of this invention was assessed in isolated paced intact rabbit atria. […] Muscles (N=5-9/compound) were stimulated at a frequency of 3Hz with a WPI stimulator for a 60 minute equilibration period. Changes in isometric force were recorded as described for the aortic smooth muscle experiments, supra. […]

[6] = dose 50mg/kg oral, at 1.5 hours, 50 mg/kg
[7] = dose 50mg/kg oral, at 4 hours, 50 mg/kg
[8] = dose 50mg/kg oral, at 1.5 hours
[9] = compound 1 x 10^-5M, 100mM KCl contraction, 20 minutes after addition, mean of two experiments
[10] = dose 25mg/kg oral, at 1.5 hours
[11] = rabbit atria paced at 3Hz, 30°C, cumulative dosing

| Compound | Antag. of Actin-Myosin (percent inhibition of superprecipitation) ([2]; 50µM) [%] | Antag. of Actin-Myosin (percent inhibition of superprecipitation) ([2]; 100µM) [%] | inhibition at 100 µM [4] [%] | inhibition at 10 µM [3, 9] [%] | inhibition at 50 µM [4] [%] | further results |
| --- | --- | --- | --- | --- | --- | --- |
| CO[C@H](COC(=O)C1=C(C)NC2=C(C(=O)CNC2)C1c1c(F)c(F)c(F)c(F)c1F)c1ccccc1 (single isomer, unassigned) [Example 8 Diastereomer B, 1,4,5,6,7,8-Hexahydro-2-methyl-5-oxo-4-(R or S-pentafluorophenyl)-1,7-naphthyridine-3-carboxylic acid(S)-2-methoxy-2-phenylethyl esters] | 30 | 64 |  |  |  | B.P. (systolic blood pressure reduction) [1, 6]: -28 mm; B.P. (systolic blood pressure reduction) [1, 7]: -67 mm; P.R. (percent relaxation of aortic tissue) ([3]; 10^-5M, Note: Muscles were pre-treated, 10 µM): 53% |
| COC(COC(=O)C1=C(C)NC2=C(C(=O)CNC2)C1c1cccc(Cl)c1)c1ccccc1 (centres unmarked) [Example 11, 4-(3-Chloroahenyl)-1,4,5,6,7,8-hexahydro-2-methyl-5-oxo-1,7--naphthyridine-3-carboxylic acid. 2-methoxv-2-phenvlethvl ester] |  | 53 | 48 | 31 |  | B.P. (systolic blood pressure reduction) [1, 8]: -29 mm |
| COC(=O)C1=C(C)NC(C)=C(C(=O)OC)C1c1ccccc1[N+](=O)[O-] [nifedipine, reference compound] |  |  |  |  |  | IC25 [5]: 0.05 µM |
| COC(COC(=O)C1=C(C)NC2=C(C(=O)CNC2)C1c1c(F)cccc1Cl)c1ccccc1 (centres unmarked) [Example 9, 4-(2-Chloro-6-fluoroohenyl)-1,4,5,6,7,8-hexahydro-2-methyl-5-oxo-1,7-naphthyridine-3-carboxylic acid 2-methoxy-2-phenylethyl ester] |  | 40 | 44 | 28 |  | B.P. (systolic blood pressure reduction) [1, 8]: -37 mm; B.P. (systolic blood pressure reduction) ([1]; dose 50mg/kg oral, at 4 hours): -14 mm |
| NCCCCCCNS(=O)(=O)c1cccc2c(Cl)cccc12 [Example W-7, reference compound] |  |  |  |  |  | inhibition at 10 µM ([5]; read-out: inhibition of isometric force): < 20% |
| CC1=C(C(=O)OCCOc2cccc(Cl)c2Cl)C(c2c(F)c(F)c(F)c(F)c2F)C2=C(CNCC2=O)N1 (centres unmarked) [Example 22, 1,4,5,6,7,8-Hexahydro-2-methyl-5-oxo-4-(pentafluorophenyl)-1,7-naphthyridine-3-carboxylic acid 2-(2,3-dichlorphenoxy)ethyl ester] | 75±4 | 78±1 | 74 ± 2 | 61 | 73 ± 1.5 | B.P. (systolic blood pressure reduction) [1, 10]: -37 mm; B.P. (systolic blood pressure reduction) ([1]; dose 25mg/kg oral, at 4 hours): -52 mm; inhibition at 10 µM ([4]; 10µM): 25%; inhibition at 25 µM [4]: 54 ± 2.5%; Antag. of Actin-Myosin (percent inhibition of superprecipitation) ([2]; 10µM): 30±3%; Antag. of Actin-Myosin (percent inhibition of superprecipitation) ([2]; 25µM): 54±3% |
| CC1=C(C(=O)OCCOc2ccccc2)C(c2c(F)ccc(C)c2Cl)C2=C(CNCC2=O)N1 (centres unmarked) [Example 23, 4-(2-chloro-6-fluoro-3-methylphenyl)-1,4,5,6,7,8-hexahydro-2-methyl-5-oxo-1,7-naphthyridine-3-carboxylic acid 2-phenoxyethyl ester] | 23 | 62 | 56 | 67 | 18 | B.P. (systolic blood pressure reduction) [1, 10]: -22 mm; B.P. (systolic blood pressure reduction) ([1]; dose 25mg/kg oral, at 4 hours): -31 mm |
| CC1=C(C(=O)OCCOc2ccccc2)C(c2c(F)ccc(Cl)c2Cl)C2=C(CNCC2=O)N1 (centres unmarked) [Example 24, 4-(2,3-Dichloro-6-fluorophenyl)-1,4,5,6,7,8-hexahydro-2-methyl-5-oxo-1,7-naphthyridine-3-carboxylic acid 2-phenoxyethyl ester] | 54±3 | 72±1 | 68 ± 1 | 65 | 50 ± 2 | inhibition at 25 µM [4]: 8 ± 2%; Antag. of Actin-Myosin (percent inhibition of superprecipitation) ([2]; 25µM): 9±2%; IC25 [5, 11]: 10 µM |
| CC1=C(C(=O)OCC(C)(C)Oc2ccccc2)C(c2c(F)c(F)c(F)c(F)c2F)C2=C(CNCC2=O)N1 (centres unmarked) [Example 20, 1,4,5,6,7,8-Hexahydro-2-methyl-5-oxo-4-(pentafluorophenyl)-1,7-naphthyridine-3-carboxylic acid 2-methyl-2-phenoxypropyl ester] |  | 67 | 62 | 51 |  | B.P. (systolic blood pressure reduction) [1, 10]: -64 mm |
| CC1=C(C(=O)OCCOc2ccccc2)C(c2c(F)ccc(F)c2F)C2=C(CNCC2=O)N1 (centres unmarked) [Example 16, 1,4,5,6,7,8-Hexahydro-2-methyl-5-oxo-4-(2,3,6-trifluorophenyl)-1,7-naphthyridine-3-carboxylic acid 2-phenoxyethyl ester] |  | 34 | 28 | 63 |  | B.P. (systolic blood pressure reduction) [1, 10]: -37 mm |
| COc1ccc(CCN(C)CCCC(C#N)(c2ccc(OC)c(OC)c2)C(C)C)cc1OC (centres unmarked) [Verapamil, reference compound] |  |  |  |  |  | IC25 [5]: 0.06 µM |
| CCOC(=O)C1=C(C)NC(C)=C(C(=O)OC)C1c1cccc([N+](=O)[O-])c1 (centres unmarked) [nitrendipine, reference compound] |  |  |  |  |  | IC25 [5, 11]: 0.35 µM |
| CC1=C(C(=O)OCCOc2ccccc2)C(c2c(F)c(F)c(F)c(F)c2F)C2=C(CNCC2=O)N1 (single isomer, unassigned) [Example 4, (+ )-1,4,5,6,7,8-Hexahydro-2-methyl-5-oxo-4-(pentafluorophenyl)-1,7-naphthyridine-3-carboxylic acid 2-phenoxyethyl ester] | 38 | 71 | 67 | 61 | 37 | IC25 [5, 11]: 0.8 µM |
| CO[C@H](COC(=O)C1=C(C)NC2=C(C(=O)CNC2)C1c1c(F)c(F)c(F)c(F)c1F)c1ccccc1 (single isomer, unassigned) [Example 8 Diastereomer A, 1,4,5,6,7,8-Hexahydro-2-methyl-5-oxo-4-(R or S-pentafluorophenyl)-1,7-naphthyridine-3-carboxylic acid(S)-2-methoxy-2-phenylethyl esters] | 28 | 69 | 63 |  | 28 | B.P. (systolic blood pressure reduction) [1, 6]: -73 mm; B.P. (systolic blood pressure reduction) [1, 7]: -86 mm; inhibition at 10 µM ([3]; 10^-5M, Note: Muscles were pre-treated): 50% |
